Assay results as given in PubChem BioAssay AID1963975 (Molecular Pharmacology Branch, DTP, NCI, 2024).

System: 624824-186-R-J2-PDC multicell spheroids, viability
Assay: Anticancer human tumor 624824-186-R-J2-PDC patient-derived colon adenocarcinoma cell line growth inhibition [PI3K]
Details: for IC50: curve of first compound; for viability, T/C: stronger effect = lower value
Summary of the method: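 Multi-cell spheroids combine tumor cells with HUVEC and human MSCs, treated with targeted agents alone or with inavolisib, alpelisib, duvelisib or copanlisib. Concentrations fall in half-log steps from at or near clinical Cmax, or from 10 microM where Cmax is unknown; viability read-out.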

[1] = second compound 0.0316 µM, first compound 0.0316 µM
[2] = second compound 0.0316 µM, first compound 0.1 µM
[3] = second compound 0.0316 µM, first compound 0.316 µM
[4] = second compound 0.0316 µM, first compound 1 µM
[5] = second compound 0.0316 µM, first compound 3.16 µM
[6] = second compound 0.0316 µM, first compound 10 µM
[7] = second compound 0.1 µM, first compound 0.0316 µM
[8] = second compound 0.1 µM, first compound 0.1 µM
[9] = second compound 0.1 µM, first compound 0.316 µM
[10] = second compound 0.1 µM, first compound 1 µM
[11] = second compound 0.1 µM, first compound 3.16 µM
[12] = second compound 0.1 µM, first compound 10 µM
[13] = second compound 0.316 µM, first compound 0.0316 µM
[14] = second compound 0.316 µM, first compound 0.1 µM
[15] = second compound 0.316 µM, first compound 0.316 µM
[16] = second compound 0.316 µM, first compound 1 µM
[17] = second compound 0.316 µM, first compound 3.16 µM
[18] = second compound 0.316 µM, first compound 10 µM
[19] = second compound 1 µM, first compound 0.0316 µM
[20] = second compound 1 µM, first compound 0.1 µM
[21] = second compound 1 µM, first compound 0.316 µM
[22] = second compound 1 µM, first compound 1 µM
[23] = second compound 1 µM, first compound 3.16 µM
[24] = second compound 1 µM, first compound 10 µM
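Note: spheroids exposed to agents for 7 days before viability read.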
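Throughout, for viability, T/C: 100% = DMSO vehicle treated spheroids.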

CC1(C)CCC(Nc2ncc(C(F)(F)F)c(-c3c[nH]c4c(P(C)(C)=O)c(C#N)ccc34)n2)CN1 (stereo unspecified) + COc1c(OCCCN2CCOCC2)ccc2c3n(c(=NC(=O)c4cnc(N)nc4)nc12)CCN3
IC50 (second compound 0.00316 µM): 3.5 µM | IC50 (second compound 0.01 µM): 3.48 µM | IC50 (second compound 0.0316 µM): 2.23 µM | IC50 (second compound 0.1 µM): 1.45 µM | IC50 (second compound 0.316 µM): 0.28 µM | IC50 (second compound 1 µM): < 0.0316 µM | viability, T/C (second compound 0.00316 µM, first compound 0.0316 µM): 78.3% | viability, T/C (second compound 0.00316 µM, first compound 0.1 µM): 104% | viability, T/C (second compound 0.00316 µM, first compound 0.316 µM): 92.2% | viability, T/C (second compound 0.00316 µM, first compound 1 µM): 89.3% | viability, T/C (second compound 0.00316 µM, first compound 3.16 µM): 54.4% | viability, T/C (second compound 0.00316 µM, first compound 10 µM): 4.77% | viability, T/C (second compound 0.01 µM, first compound 0.0316 µM): 73.5% | viability, T/C (second compound 0.01 µM, first compound 0.1 µM): 76.8% | viability, T/C (second compound 0.01 µM, first compound 0.316 µM): 94.8% | viability, T/C (second compound 0.01 µM, first compound 1 µM): 83.1% | viability, T/C (second compound 0.01 µM, first compound 3.16 µM): 54.2% | viability, T/C (second compound 0.01 µM, first compound 10 µM): 4.78% | viability, T/C [1]: 82.5% | viability, T/C [2]: 75.9% | viability, T/C [3]: 71.5% | viability, T/C [4]: 61.7% | viability, T/C [5]: 46.9% | viability, T/C [6]: 3.67% | viability, T/C [7]: 63.6% | viability, T/C [8]: 56.9% | viability, T/C [9]: 55.1% | viability, T/C [10]: 49.1% | viability, T/C [11]: 45.6% | viability, T/C [12]: 4.59% | viability, T/C [13]: 54% | viability, T/C [14]: 51.7% | viability, T/C [15]: 47.9% | viability, T/C [16]: 43.8% | viability, T/C [17]: 35.4% | viability, T/C [18]: 2.98% | viability, T/C [19]: 43% | viability, T/C [20]: 44.8% | viability, T/C [21]: 42.7% | viability, T/C [22]: 37.2% | viability, T/C [23]: 32.5% | viability, T/C [24]: 2.59%

CNC(=O)c1ccc(N2C(=S)N(c3ccc(C#N)c(C(F)(F)F)c3)C(=O)C2(C)C)cc1F + Cc1nc(NC(=O)N2CCCC2C(N)=O)sc1-c1ccnc(C(C)(C)C(F)(F)F)c1
IC50 (second compound 0.0316 µM): > 10 µM | IC50 (second compound 0.1 µM): > 10 µM | IC50 (second compound 0.316 µM): > 10 µM | IC50 (second compound 1 µM): > 10 µM | IC50 (second compound 3.16 µM): > 10 µM | IC50 (second compound 10 µM): > 10 µM | viability, T/C [1]: 87.5% | viability, T/C [2]: 108% | viability, T/C [3]: 102% | viability, T/C [4]: 108% | viability, T/C [5]: 94.1% | viability, T/C [6]: 121% | viability, T/C [7]: 85.6% | viability, T/C [8]: 87.5% | viability, T/C [9]: 78.3% | viability, T/C [10]: 90.6% | viability, T/C [11]: 90.4% | viability, T/C [12]: 114% | viability, T/C [13]: 76.1% | viability, T/C [14]: 86.1% | viability, T/C [15]: 97.8% | viability, T/C [16]: 94.4% | viability, T/C [17]: 81.9% | viability, T/C [18]: 96.2% | viability, T/C [19]: 79.1% | viability, T/C [20]: 78.9% | viability, T/C [21]: 99% | viability, T/C [22]: 96.7% | viability, T/C [23]: 113% | viability, T/C [24]: 90.9% | viability, T/C (second compound 3.16 µM, first compound 0.0316 µM): 81.3% | viability, T/C (second compound 3.16 µM, first compound 0.1 µM): 92.2% | viability, T/C (second compound 3.16 µM, first compound 0.316 µM): 89.1% | viability, T/C (second compound 3.16 µM, first compound 1 µM): 84.7% | viability, T/C (second compound 3.16 µM, first compound 3.16 µM): 101% | viability, T/C (second compound 3.16 µM, first compound 10 µM): 86.4% | viability, T/C (second compound 10 µM, first compound 0.0316 µM): 81.5% | viability, T/C (second compound 10 µM, first compound 0.1 µM): 74.8% | viability, T/C (second compound 10 µM, first compound 0.316 µM): 73% | viability, T/C (second compound 10 µM, first compound 1 µM): 73.9% | viability, T/C (second compound 10 µM, first compound 3.16 µM): 79.1% | viability, T/C (second compound 10 µM, first compound 10 µM): 65%

Cn1cnc2c(F)c(Nc3ccc(Br)cc3Cl)c(C(=O)NOCCO)cc21 + Cc1nc(NC(=O)N2CCCC2C(N)=O)sc1-c1ccnc(C(C)(C)C(F)(F)F)c1
IC50 (second compound 0.0316 µM): > 3 µM | IC50 (second compound 0.1 µM): > 3 µM | IC50 (second compound 0.316 µM): > 3 µM | IC50 (second compound 1 µM): > 3 µM | IC50 (second compound 3.16 µM): 0.69 µM | IC50 (second compound 10 µM): 0.0836 µM | viability, T/C (second compound 0.0316 µM, first compound 0.00949 µM): 90.2% | viability, T/C (second compound 0.0316 µM, first compound 0.03 µM): 68.3% | viability, T/C (second compound 0.0316 µM, first compound 0.0949 µM): 78% | viability, T/C (second compound 0.0316 µM, first compound 0.3 µM): 91.2% | viability, T/C (second compound 0.0316 µM, first compound 0.949 µM): 89.4% | viability, T/C (second compound 0.0316 µM, first compound 3 µM): 76.4% | viability, T/C (second compound 0.1 µM, first compound 0.00949 µM): 82.8% | viability, T/C (second compound 0.1 µM, first compound 0.03 µM): 79.7% | viability, T/C (second compound 0.1 µM, first compound 0.0949 µM): 72.9% | viability, T/C (second compound 0.1 µM, first compound 0.3 µM): 78.5% | viability, T/C (second compound 0.1 µM, first compound 0.949 µM): 83.1% | viability, T/C (second compound 0.1 µM, first compound 3 µM): 77.4% | viability, T/C (second compound 0.316 µM, first compound 0.00949 µM): 86.7% | viability, T/C (second compound 0.316 µM, first compound 0.03 µM): 71.8% | viability, T/C (second compound 0.316 µM, first compound 0.0949 µM): 74.3% | viability, T/C (second compound 0.316 µM, first compound 0.3 µM): 70.5% | viability, T/C (second compound 0.316 µM, first compound 0.949 µM): 77.7% | viability, T/C (second compound 0.316 µM, first compound 3 µM): 66.7% | viability, T/C (second compound 1 µM, first compound 0.00949 µM): 90.3% | viability, T/C (second compound 1 µM, first compound 0.03 µM): 61.8% | viability, T/C (second compound 1 µM, first compound 0.0949 µM): 66.6% | viability, T/C (second compound 1 µM, first compound 0.3 µM): 62.7% | viability, T/C (second compound 1 µM, first compound 0.949 µM): 77.5% | viability, T/C (second compound 1 µM, first compound 3 µM): 51.5% | viability, T/C (second compound 3.16 µM, first compound 0.00949 µM): 82.2% | viability, T/C (second compound 3.16 µM, first compound 0.03 µM): 73.8% | viability, T/C (second compound 3.16 µM, first compound 0.0949 µM): 79.6% | viability, T/C (second compound 3.16 µM, first compound 0.3 µM): 63.8% | viability, T/C (second compound 3.16 µM, first compound 0.949 µM): 44.6% | viability, T/C (second compound 3.16 µM, first compound 3 µM): 22.2% | viability, T/C (second compound 10 µM, first compound 0.00949 µM): 63% | viability, T/C (second compound 10 µM, first compound 0.03 µM): 58.4% | viability, T/C (second compound 10 µM, first compound 0.0949 µM): 43.1% | viability, T/C (second compound 10 µM, first compound 0.3 µM): 44.5% | viability, T/C (second compound 10 µM, first compound 0.949 µM): 17.7% | viability, T/C (second compound 10 µM, first compound 3 µM): 1.93%
